For three compounds, Kd results are on record in article PMC5119973 (Cancer Medicine, 2016).

Common to all, as to assay: KINOMEscan active-site competitive binding assay
Experiment [1] deals with T1, ABL1-np (Homo sapiens, UniProt P00519).
T1 construct: purchased DiscoveRx (KINOMEscan service)
The note with it: ABL1-np (not phosphorylated); slash = two separate measurements.

The target in experiment [2] is T2, TAOK3 (Homo sapiens, UniProt Q9H2K8).
T2 construct: purchased DiscoveRx
T2 sequence (Q9H2K8 1-898): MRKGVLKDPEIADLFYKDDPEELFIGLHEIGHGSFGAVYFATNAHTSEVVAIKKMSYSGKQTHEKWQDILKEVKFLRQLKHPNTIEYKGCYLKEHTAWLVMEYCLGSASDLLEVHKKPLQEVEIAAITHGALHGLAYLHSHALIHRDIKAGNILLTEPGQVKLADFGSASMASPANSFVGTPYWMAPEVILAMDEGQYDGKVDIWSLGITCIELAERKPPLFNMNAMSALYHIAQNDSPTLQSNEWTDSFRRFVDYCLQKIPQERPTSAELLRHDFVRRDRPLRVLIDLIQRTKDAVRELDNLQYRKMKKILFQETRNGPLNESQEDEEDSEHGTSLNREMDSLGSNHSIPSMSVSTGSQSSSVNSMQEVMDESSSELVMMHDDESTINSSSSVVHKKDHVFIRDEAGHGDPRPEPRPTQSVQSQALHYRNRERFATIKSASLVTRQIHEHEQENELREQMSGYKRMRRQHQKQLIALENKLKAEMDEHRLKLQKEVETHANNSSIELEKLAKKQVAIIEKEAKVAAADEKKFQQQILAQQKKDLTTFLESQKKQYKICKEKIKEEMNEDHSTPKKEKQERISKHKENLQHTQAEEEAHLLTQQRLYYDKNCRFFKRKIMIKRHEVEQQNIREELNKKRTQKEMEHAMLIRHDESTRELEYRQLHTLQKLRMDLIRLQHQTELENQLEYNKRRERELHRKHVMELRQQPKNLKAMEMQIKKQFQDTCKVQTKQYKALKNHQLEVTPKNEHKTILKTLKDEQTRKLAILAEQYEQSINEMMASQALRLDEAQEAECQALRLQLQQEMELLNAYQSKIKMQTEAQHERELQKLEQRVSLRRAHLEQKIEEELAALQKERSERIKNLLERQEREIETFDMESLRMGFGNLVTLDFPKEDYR
Conditions: slash = duplicate values.

The target in experiment [3] is T3, YSK4 (Homo sapiens, UniProt Q56UN5).
T3 construct: purchased DiscoveRx
T3 sequence (Q56UN5 1-1328): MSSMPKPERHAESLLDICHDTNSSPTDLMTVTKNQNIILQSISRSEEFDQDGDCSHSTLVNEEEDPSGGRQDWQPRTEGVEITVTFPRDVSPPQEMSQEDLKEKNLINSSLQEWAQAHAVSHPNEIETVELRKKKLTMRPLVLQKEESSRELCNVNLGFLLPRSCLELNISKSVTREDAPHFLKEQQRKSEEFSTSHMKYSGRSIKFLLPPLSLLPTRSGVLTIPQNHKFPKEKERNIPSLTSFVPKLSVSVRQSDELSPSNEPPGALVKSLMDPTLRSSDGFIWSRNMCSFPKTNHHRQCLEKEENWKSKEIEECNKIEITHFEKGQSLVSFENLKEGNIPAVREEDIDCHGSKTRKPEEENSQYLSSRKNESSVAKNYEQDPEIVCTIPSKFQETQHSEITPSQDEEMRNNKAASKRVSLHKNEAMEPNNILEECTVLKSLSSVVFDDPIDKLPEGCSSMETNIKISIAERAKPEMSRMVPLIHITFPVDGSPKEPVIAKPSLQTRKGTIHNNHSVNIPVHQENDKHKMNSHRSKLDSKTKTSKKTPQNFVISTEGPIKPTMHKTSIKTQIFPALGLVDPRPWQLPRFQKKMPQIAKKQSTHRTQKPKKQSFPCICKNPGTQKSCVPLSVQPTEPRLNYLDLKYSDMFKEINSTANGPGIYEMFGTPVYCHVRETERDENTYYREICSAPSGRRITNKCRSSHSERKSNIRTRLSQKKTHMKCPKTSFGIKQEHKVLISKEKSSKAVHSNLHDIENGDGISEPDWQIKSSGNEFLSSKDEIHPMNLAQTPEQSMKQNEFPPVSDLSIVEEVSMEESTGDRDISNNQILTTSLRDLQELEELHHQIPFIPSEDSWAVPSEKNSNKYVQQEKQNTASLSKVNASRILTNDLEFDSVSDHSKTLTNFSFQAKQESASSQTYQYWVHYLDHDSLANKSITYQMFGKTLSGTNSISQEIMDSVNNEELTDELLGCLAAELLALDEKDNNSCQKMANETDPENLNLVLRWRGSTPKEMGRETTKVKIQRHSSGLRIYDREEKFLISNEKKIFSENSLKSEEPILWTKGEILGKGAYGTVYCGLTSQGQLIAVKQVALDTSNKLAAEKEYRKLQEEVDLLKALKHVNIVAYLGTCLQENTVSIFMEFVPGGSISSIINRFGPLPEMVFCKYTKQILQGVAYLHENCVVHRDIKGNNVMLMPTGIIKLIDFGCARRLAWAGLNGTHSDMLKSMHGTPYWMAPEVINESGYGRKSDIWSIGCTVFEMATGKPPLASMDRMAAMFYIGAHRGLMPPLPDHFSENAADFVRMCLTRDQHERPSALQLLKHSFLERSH
Conditions: slash = two separate measurements.

Several values for one entry are separate records, joined by “and”; a condition that tells them apart may be missing. Equal values may be shown once.

T1 sequence (P00519 whole entry): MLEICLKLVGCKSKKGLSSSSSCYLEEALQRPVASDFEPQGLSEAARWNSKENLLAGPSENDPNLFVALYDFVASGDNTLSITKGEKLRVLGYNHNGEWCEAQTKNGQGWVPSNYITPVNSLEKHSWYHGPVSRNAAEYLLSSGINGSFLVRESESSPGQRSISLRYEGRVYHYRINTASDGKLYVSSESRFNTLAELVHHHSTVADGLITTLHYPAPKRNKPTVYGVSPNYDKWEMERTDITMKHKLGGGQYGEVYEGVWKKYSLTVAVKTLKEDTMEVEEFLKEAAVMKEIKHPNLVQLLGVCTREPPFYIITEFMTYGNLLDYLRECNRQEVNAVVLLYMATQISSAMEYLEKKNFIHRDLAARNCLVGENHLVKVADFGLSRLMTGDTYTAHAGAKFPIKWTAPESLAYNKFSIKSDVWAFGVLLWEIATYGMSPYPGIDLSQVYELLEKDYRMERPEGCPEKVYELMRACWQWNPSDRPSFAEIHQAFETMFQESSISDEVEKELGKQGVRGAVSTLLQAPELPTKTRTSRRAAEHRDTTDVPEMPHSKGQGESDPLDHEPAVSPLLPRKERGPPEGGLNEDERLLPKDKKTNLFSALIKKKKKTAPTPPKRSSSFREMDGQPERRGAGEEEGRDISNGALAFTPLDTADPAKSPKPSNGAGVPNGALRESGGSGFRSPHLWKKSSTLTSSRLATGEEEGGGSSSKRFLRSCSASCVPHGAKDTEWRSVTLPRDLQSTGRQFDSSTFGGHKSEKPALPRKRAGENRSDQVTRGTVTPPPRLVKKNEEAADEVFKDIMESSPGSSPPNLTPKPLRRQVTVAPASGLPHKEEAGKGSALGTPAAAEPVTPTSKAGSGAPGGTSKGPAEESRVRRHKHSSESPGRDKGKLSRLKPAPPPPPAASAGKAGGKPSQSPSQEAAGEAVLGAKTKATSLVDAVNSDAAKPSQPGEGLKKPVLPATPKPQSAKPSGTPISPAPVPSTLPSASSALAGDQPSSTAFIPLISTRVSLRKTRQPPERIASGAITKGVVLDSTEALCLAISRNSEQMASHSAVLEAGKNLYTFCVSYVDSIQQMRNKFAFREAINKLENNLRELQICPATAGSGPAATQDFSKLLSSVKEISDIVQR

Consider `CNC(=O)c1cc(Oc2ccc(NC(=O)Nc3ccc(Cl)c(C(F)(F)F)c3)c(F)c2)cc[n+]1[O-]` [M‐2], for which the Kd (usually the equilibrium constant for the complex coming apart) is 23 nM in experiment [1]; 94 nM and 77 nM in experiment [2]; 55 nM in experiment [3].

Take `NC(=O)c1cc(Oc2ccc(NC(=O)Nc3ccc(Cl)c(C(F)(F)F)c3)c(F)c2)cc[n+]1[O-]` [M‐5]: the Kd in experiment [1] was 20 nM; in experiment [2], 450 nM; in experiment [3] it was 70 nM.

`CNC(=O)c1cc(Oc2ccc(NC(=O)Nc3ccc(Cl)c(C(F)(F)F)c3)c(F)c2)ccn1` [Regorafenib, reference compound]: the dissociation constant (Kd) in experiment [1] is 32 nM and 16 nM; in experiment [2], 200 nM and 290 nM; in experiment [3], 38 nM and 94 nM.
